Laboratory results taken from US8933071B2, “Dimethyl fasudil for inducing polyploidization of megakaryocytes and for treating blood and bone marrow diseases and disorders” (Northwestern University, priority 2008, dated 2015).

System: megakaryocyte colonies (CFU-MK) from MPD bone marrow
Experiment: CFU-MK assay, bone marrow mononuclear cells from a patient with ET
Type: cell-based, human
Conditions: two doses, 10 days
Protocol: FIG. 5 illustrates that the Rho kinase inhibitor dimethylfasudil (DMF) (also know as “ROCK inhibitor”) blocks formation of megakaryocyte colonies (CFU-MK) by bone marrow from patients with Myeloproliferative Disease (MPD).
Data with Patient Samples. Two lead compounds were tested on samples from both MPD (myeloproliferative disease) patients and AMKL (acute megakaryocytic leukemia) patients. […] Referring to FIG. 5, bone marrow mononuclear cells from a patient with ET were cultured with two doses of DMF for 10 days. […] Referring to FIG. 8, bone marrow samples from patients with AMKL were cultured in DMSO (control) or DMF (at 5 μM) for 14 days. Colonies were stained with anti-CD41 antibody and visualized by microcopy (not shown). Total numbers of CD41+ megakaryocyte colonies are shown.
MPDs Patient Specimens. Mononuclear cells from bone marrow of patients were obtained by informed consent from patients at Northwestern Feinberg School of Medicine. […] The cells were stained with 0.4% trypan blue solution for 5 minutes and live cells were counted. […]
CFU-MK (Colony forming units-megakarvocvtes) assay. […] Slides were scored microscopically, and megakaryocyte colonies were defined as colonies with at least three megakaryocytes.

dimethylfasudil [DMF]
formation of aberrant megakaryocyte colonies (CFU-MK): potently blocked formation
